# In patent publication US9901592B2 (priority 2008, dated 2018):
# Like-named read-outs stand apart in the source and are kept apart here.
# Columns and labels:
# S. pyogenes [1] = assay type: cell-based; parameters: MIC: unit not given beside the values; conditions: for MIC50 / MIC90: Streptococcus pyogenes
# M. pneumoniae = test: microbe, parasite or virus in culture; assay type: cell-based; conditions: Mycoplasmoides pneumoniae
# U. parvum = test: MIC testing in 10B broth (colour change); assay type: cell-based, Ureaplasma parvum
# S. pneumoniae [2] = test: microbe, parasite or virus in culture; assay type: cell-based; conditions: for MIC: Streptococcus pneumoniae
# S. pyogenes 3029 = test: Intraperitoneal (IP) mouse infection model (ED50); assay type: in vivo; conditions: Streptococcus pyogenes, MAC-R S. pyogenes 3029
# S. pneumoniae [3] = test: mouse systemic infection model (PD50); assay type: in vivo
# S. pyogenes [4] = test: mouse systemic infection model (PD50); assay type: in vivo
# S. pneumoniae [5] = test: mouse subcutaneous abscess model; assay type: in vivo; conditions: S. pneumoniae 1629, 10 mg/Kg PO
# Method: Example. Efficacy was evaluated in several infection models. […] PD50s were determined 24 hr post infection. CEM-101 was further evaluated in a subcutaneous abscess mouse model against S. pneumoniae. CD-1 female mice were infected via SC injection of bacteria mixed with cyclodextran beads. Two hr post infection, mice received a single oral dose of CEM 101 or control agents. At 48 hr post dose, mice were euthanized, abscesses aseptically removed and bacteria enumerated. CFU per abscess was determined and compared to the untreated control. […] 24 hr post treatment, the thighs were processed and CFU/gram of thigh determined.
# (§1) Example. Mouse Subcutaneous Abscess. Bacteria were prepared from an overnight plate culture by re-suspending in saline and adjusting the suspension to a 0.1 OD at 625 nm of a 1:10 dilution. The adjusted bacterial suspension was mixed 1:2 with cyclodextran beads prepared as per package instructions. The right flanks of the mice were shaven and injected subcutaneously with 0.2 ml of the bacterial inoculum. Two hours post infection mice were treated via oral gavage with either test article or control drug. 48 hours post infection, mice were euthanized, abscesses aseptically removed, homogenized, serially diluted and plated on bacterial growth agar. After overnight incubation, colonies were counted and CFUs/gram of abscess were determined.
# Example. The ability of CEM101 to reduce the microbial load in abscess infection model was also assessed against S. pneumoniae isolates.
# S. pyogenes ATCC 8668 = test: mouse subcutaneous abscess model; assay type: in vivo; conditions: 48 hr. post infection
# Method: as §1
# Example. Mouse Subcutaneous Abscess˜S. pyogenes ATCC 8668 (Average Log10 CFU/gram of Abscess). Abscess processing 48 hours post infection.
# [6] = tested on: viridans group streptococci (VGS); assay type: cell-based; conditions: VGS (51)
# H. influenzae ATCC 49247 = test: post-antibiotic effect (PAE) testing; conditions: H. influenzae ATCC 49247; 4X MIC; exposure 1 hour
# [7] = S. pyogenes TEL R, Macr-R, 10 strains
# [8] = S. pyogenes TEL S, Macr-R, 30 strains
# [9] = S. pyogenes TEL S, Macr-S, 10 strains
smiles,measurement,setting,value
"CC[C@H]1OC(=O)[C@H](C)C(=O)[C@H](C)[C@@H](O[C@@H]2O[C@H](C)C[C@H](N(C)C)[C@H]2O)[C@](C)(OC)C[C@@H](C)C(=O)[C@H](C)[C@H]2N(CCCCn3cnc(-c4cccnc4)c3)C(=O)O[C@]12C [TEL, telithromycin]",MIC,S. pyogenes [1]; MAC-R S. pyogenes 3029,(16)
same,MIC50,S. pyogenes [1]; [7],32 µg/mL
same,MIC90,S. pyogenes [1]; [7],32 µg/mL
same,MIC50,S. pyogenes [1]; [8],0.125 µg/mL
same,MIC90,S. pyogenes [1]; [8],0.5 µg/mL
same,MIC50,S. pyogenes [1]; [9],0.03 µg/mL
same,MIC90,S. pyogenes [1]; [9],0.03 µg/mL
same,MIC50,M. pneumoniae,0.00025 µg/mL
same,MIC90,M. pneumoniae,0.001 µg/mL
same,MIC Range,U. parvum; U. parvum (10 isolates),0.008 to 0.063 µg/mL
same,MIC50,U. parvum; Ureaplasma parvum,0.063 µg/mL
same,MIC90,U. parvum; Ureaplasma parvum,0.125 µg/mL
same,strains with resistant clones / strains tested,S. pneumoniae [2]; S. pneumoniae,5/8
same,MIC,"S. pneumoniae [2]; read-out: Initial MIC, strain 24 Macrolide-R [erm(B)], parent",0.25 µg/mL
same,MIC,"S. pneumoniae [2]; read-out: Initial MIC, strain 1076 Macrolide-R [erm(B)&mef(A)], parent",0.5 µg/mL
same,MIC,"S. pneumoniae [2]; read-out: Initial MIC, strain 1077 Macrolide-S, parent",0.004 µg/mL
same,MIC,"S. pneumoniae [2]; read-out: Initial MIC, strain 1635 Macrolide-R [erm(A)], parent",0.004 µg/mL
same,MIC,"S. pneumoniae [2]; read-out: Initial MIC, strain 2686 Macrolide-R [L4 mutation], parent",0.06 µg/mL
same,MIC,"S. pneumoniae [2]; read-out: Initial MIC, strain 3009 Macrolide-R [23SrRNA mutation], parent",0.016 µg/mL
same,MIC,"S. pneumoniae [2]; read-out: Initial MIC, strain 3665 Macrolide-R [mef(A)], parent",0.125 µg/mL
same,MIC,"S. pneumoniae [2]; read-out: Initial MIC, strain 7127 Macrolide-S [S20N in L4, A105V in L22], parent",0.008 µg/mL
same,MIC,"S. pneumoniae [2]; read-out: MIC of parents of resistant clones, S. pneumoniae (CEM-101: 7 strains)",0.004 to 0.5 µg/mL
same,MIC,"S. pneumoniae [2]; read-out: Parental MICs, S. pneumoniae, 8 strains with varying resistotypes",0.004 to 0.5 µg/mL
same,MIC,"S. pneumoniae [2]; read-out: Selected Resistance MIC, strain 24 Macrolide-R [erm(B)], after serial passages in the drug",32 µg/mL
same,MIC,"S. pneumoniae [2]; read-out: Selected Resistance MIC, strain 1076 Macrolide-R [erm(B)&mef(A)], after serial passages in the drug",> 64 µg/mL
same,MIC,"S. pneumoniae [2]; read-out: Selected Resistance MIC, strain 1077 Macrolide-S, after serial passages in the drug",0.25 µg/mL
same,MIC,"S. pneumoniae [2]; read-out: Selected Resistance MIC, strain 1635 Macrolide-R [erm(A)], after serial passages in the drug",0.008 µg/mL
same,MIC,"S. pneumoniae [2]; read-out: Selected Resistance MIC, strain 2686 Macrolide-R [L4 mutation], after serial passages in the drug",0.5 µg/mL
same,MIC,"S. pneumoniae [2]; read-out: Selected Resistance MIC, strain 3009 Macrolide-R [23SrRNA mutation], after serial passages in the drug",0.03 µg/mL
same,MIC,"S. pneumoniae [2]; read-out: Selected Resistance MIC, strain 3665 Macrolide-R [mef(A)], after serial passages in the drug",2 µg/mL
same,MIC,"S. pneumoniae [2]; read-out: Selected Resistance MIC, strain 7127 Macrolide-S [S20N in L4, A105V in L22], after serial passages in the drug",0.06 µg/mL
same,days until resistant clones (MIC increase),"S. pneumoniae [2]; daily passages, min. 14, max. 50",14 to 38 days
same,Retest MIC after 10 Antibiotic-free Subcultures,"S. pneumoniae [2]; strain 24 Macrolide-R [erm(B)], clone selected with CEM-101",0.125 µg/mL
same,Retest MIC after 10 Antibiotic-free Subcultures,"S. pneumoniae [2]; strain 24 Macrolide-R [erm(B)], clone selected with TEL",16 µg/mL
same,Retest MIC after 10 Antibiotic-free Subcultures,"S. pneumoniae [2]; strain 1076 Macrolide-R [erm(B)&mef(A)], clone selected with CEM-101",32 µg/mL
same,Retest MIC after 10 Antibiotic-free Subcultures,"S. pneumoniae [2]; strain 1076 Macrolide-R [erm(B)&mef(A)], clone selected with TEL",>64 µg/mL
same,Retest MIC after 10 Antibiotic-free Subcultures,"S. pneumoniae [2]; strain 1077 Macrolide-S, clone selected with AZI",0.125 µg/mL
same,Retest MIC after 10 Antibiotic-free Subcultures,"S. pneumoniae [2]; strain 1077 Macrolide-S, clone selected with CEM-101",0.06a μg/ml
same,Retest MIC after 10 Antibiotic-free Subcultures,"S. pneumoniae [2]; strain 1077 Macrolide-S, clone selected with CLN",0.06 µg/mL
same,Retest MIC after 10 Antibiotic-free Subcultures,"S. pneumoniae [2]; strain 1077 Macrolide-S, clone selected with TEL",0.25 µg/mL
same,Retest MIC after 10 Antibiotic-free Subcultures,"S. pneumoniae [2]; strain 1635 Macrolide-R [erm(A)], clone selected with AZI",0.004 µg/mL
same,Retest MIC after 10 Antibiotic-free Subcultures,"S. pneumoniae [2]; strain 1635 Macrolide-R [erm(A)], clone selected with CEM-101",0.03 µg/mL
same,Retest MIC after 10 Antibiotic-free Subcultures,"S. pneumoniae [2]; strain 1635 Macrolide-R [erm(A)], clone selected with CLN",0.008 µg/mL
same,Retest MIC after 10 Antibiotic-free Subcultures,"S. pneumoniae [2]; strain 1635 Macrolide-R [erm(A)], clone selected with CLR",0.016 µg/mL
same,Retest MIC after 10 Antibiotic-free Subcultures,"S. pneumoniae [2]; strain 2686 Macrolide-R [L4 mutation], clone selected with CEM-101",0.25 µg/mL
same,Retest MIC after 10 Antibiotic-free Subcultures,"S. pneumoniae [2]; strain 2686 Macrolide-R [L4 mutation], clone selected with CLR",0.06 µg/mL
same,Retest MIC after 10 Antibiotic-free Subcultures,"S. pneumoniae [2]; strain 2686 Macrolide-R [L4 mutation], clone selected with TEL",0.5 µg/mL
same,Retest MIC after 10 Antibiotic-free Subcultures,"S. pneumoniae [2]; strain 3009 Macrolide-R [23SrRNA mutation], clone selected with CEM-101",0.06 µg/mL
same,Retest MIC after 10 Antibiotic-free Subcultures,"S. pneumoniae [2]; strain 3009 Macrolide-R [23SrRNA mutation], clone selected with CLR",0.06 µg/mL
same,Retest MIC after 10 Antibiotic-free Subcultures,"S. pneumoniae [2]; strain 3665 Macrolide-R [mef(A)], clone selected with CEM-101",0.25 µg/mL
same,Retest MIC after 10 Antibiotic-free Subcultures,"S. pneumoniae [2]; strain 3665 Macrolide-R [mef(A)], clone selected with CLR",0.06 µg/mL
same,Retest MIC after 10 Antibiotic-free Subcultures,"S. pneumoniae [2]; strain 3665 Macrolide-R [mef(A)], clone selected with TEL",0.25 µg/mL
same,Retest MIC after 10 Antibiotic-free Subcultures,"S. pneumoniae [2]; strain 7127 Macrolide-S [S20N in L4, A105V in L22], clone selected with AZI",0.016 µg/mL
same,Retest MIC after 10 Antibiotic-free Subcultures,"S. pneumoniae [2]; strain 7127 Macrolide-S [S20N in L4, A105V in L22], clone selected with CEM-101",0.06 µg/mL
same,Retest MIC after 10 Antibiotic-free Subcultures,"S. pneumoniae [2]; strain 7127 Macrolide-S [S20N in L4, A105V in L22], clone selected with CLN",0.008 µg/mL
same,Retest MIC after 10 Antibiotic-free Subcultures,"S. pneumoniae [2]; strain 7127 Macrolide-S [S20N in L4, A105V in L22], clone selected with CLR",0.008 µg/mL
same,Retest MIC after 10 Antibiotic-free Subcultures,"S. pneumoniae [2]; strain 7127 Macrolide-S [S20N in L4, A105V in L22], clone selected with TEL",0.03 µg/mL
same,ED50,S. pyogenes 3029,> 150 mg/kg
same,PD50,S. pneumoniae [3]; S. pneumoniae (macrolide susceptible),19.9 mg/kg
same,PD50,S. pneumoniae [3]; S. pneumoniae (mefR),10.6 mg/kg
same,PD50,S. pneumoniae [3]; S. pneumoniae serotype 19A,5.7 mg/kg
same,PD50,S. pyogenes [4]; S. pyogenes (erythromycin R),4.4 mg/kg
same,PD50,S. pyogenes [4]; S. pyogenes (macrolide susceptible),7.8 mg/kg
same,average log10 CFU/gram of abscess,S. pneumoniae [5]; 24 hours,about 3 log10 CFU/gram
same,average log10 CFU/gram of abscess,S. pneumoniae [5]; 48 hours,about 4.5 log10 CFU/gram
same,Average Log10 CFU/gram of Abscess,S. pyogenes ATCC 8668; 10 mg/Kg,7.06 Log10 CFU/gram
same,Average Log10 CFU/gram of Abscess,S. pyogenes ATCC 8668; 20 mg/Kg,6.10 Log10 CFU/gram
same,MIC50,[6],0.015 µg/mL
same,MIC90,[6],0.25 µg/mL
same,MIC Range,[6],≦0.008-0.5 μg/ml
same,PAE,H. influenzae ATCC 49247,1.2 h
